The record followed here is US20070082880A1 (priority 2005, published 2007).

SMILES strings stand for the structures. Where only a bound is given, the exact number is not on record here.

In data set [1] the target is T1, human PKCθ full length enzyme (Homo sapiens, UniProt Q04759).
T1 construct: human PKCθ full length enzyme (Panvera Catalog No. P2996); purchased Panvera P2996
The data set is described as follows: PKCθ IMAP Assay. The data set is classed as biochemical. To be noted: average value when one or more samples were tested; ATP 6 uM, PKCθ 1 nM. An outline of the steps:
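Full-length human PKCθ (1 nM final) with 6 uM ATP and 100 nM 5FAM-labelled peptide, 5% DMSO, 3.0 mM DTT in reaction buffer. 25 min at room temperature; IMAP bead binding 20 min, fluorescence polarization read. Compounds 2:1 serially diluted; no-ATP and no-enzyme wells as controls.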

T1 sequence (Q04759 whole entry): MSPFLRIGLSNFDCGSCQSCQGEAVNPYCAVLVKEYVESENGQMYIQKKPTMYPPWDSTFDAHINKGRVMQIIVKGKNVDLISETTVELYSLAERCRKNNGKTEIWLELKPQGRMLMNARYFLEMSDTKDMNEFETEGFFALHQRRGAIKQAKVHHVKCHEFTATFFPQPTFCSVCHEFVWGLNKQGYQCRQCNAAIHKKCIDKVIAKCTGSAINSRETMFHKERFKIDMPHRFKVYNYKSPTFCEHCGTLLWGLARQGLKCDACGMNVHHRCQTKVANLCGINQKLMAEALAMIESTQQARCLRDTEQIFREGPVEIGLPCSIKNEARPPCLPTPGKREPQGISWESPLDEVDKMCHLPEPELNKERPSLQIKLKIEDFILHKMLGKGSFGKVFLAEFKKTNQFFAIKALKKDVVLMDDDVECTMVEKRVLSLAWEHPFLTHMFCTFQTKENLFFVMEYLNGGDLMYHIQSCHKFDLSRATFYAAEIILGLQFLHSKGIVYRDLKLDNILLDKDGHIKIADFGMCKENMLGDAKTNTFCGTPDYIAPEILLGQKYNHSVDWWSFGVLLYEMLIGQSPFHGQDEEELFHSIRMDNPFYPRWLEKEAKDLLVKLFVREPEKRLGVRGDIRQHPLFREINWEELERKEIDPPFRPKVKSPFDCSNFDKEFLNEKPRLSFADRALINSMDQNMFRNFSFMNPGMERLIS

For orientation: IC50 means the concentration that gives 50% inhibition. Usually melting point stands for the temperature, or range, at which the solid turns liquid. Consider `N#Cc1cnc2sc(-c3ccccc3)cc2c1Oc1ccc2[nH]ccc2c1` [Compound 130, 4-(1H-indol-5-yloxy)-2-phenylthieno[2,3-b]pyridine-5-carbonitrile], for which the melting point lay in the range of 219 to 221 °C. Moreover, the half-inhibitory concentration (IC50) in data set [1] is 9.3 µM.
`CN1CCN(CCC#Cc2cc3c(Nc4ccc5[nH]ccc5c4)c(C#N)cnc3s2)CC1` [Compound 221, 4-(1H-indol-5-ylamino)-2-[4-(4-methylpiperazin-1-yl)but-1-yn-1-yl]thieno[2,3-b]pyridine-5-carbonitrile] showed a melting point of 195 to 197 °C. This compound gave an IC50 in data set [1] of 0.17 µM.
In turn, `COC(=O)c1cc2c(Nc3ccc4[nH]ccc4c3C)c(C#N)cnc2s1` [Compound 245, methyl 5-cyano-4-[(4-methyl-1H-indol-5-yl)amino]thieno[2,3-b]pyridine-2-carboxylate] gave a melting point of 255 °C. The same compound gave an IC50 in data set [1] of 0.068 µM.
Turning to `Cc1c(Nc2c(C#N)cnc3sc(C(=O)O)cc23)ccc2[nH]ccc12` [Compound 247, 5-cyano-4-[(4-methyl-1H-indol-5-yl)amino]thieno[2,3-b]pyridine-2-carboxylic acid], the melting point worked out at 287 °C. The compound further yielded an IC50 in data set [1] of 0.219 µM.
For `N#Cc1cnc2sc(C(=O)O)cc2c1Nc1ccc2[nH]ccc2c1` [Compound 248, 5-cyano-4-(1H-indol-5-ylamino)thieno[2,3-b]pyridine-2-carboxylic acid], the melting point was > 250 °C. For the same compound, the IC50 in data set [1] was 2.05 µM.
Consider `Cc1c(Nc2c(C#N)cnc3sc(C(=O)N4CCCC4)cc23)ccc2[nH]ccc12` [Compound 249, 4-[(4-methyl-1H-indol-5-yl)amino]-2-(pyrrolidin-1-ylcarbonyl)thieno[2,3-b]pyridine-5-carbonitrile], for which the melting point worked out at 256 °C. Also, half-maximal inhibition in data set [1] (IC50) was put at 0.048 µM.
Turning to `N#Cc1cnc2sc(CN3CCCC3)cc2c1Nc1ccc2[nH]ccc2c1` [Compound 267, 4-(1H-indol-5-ylamino)-2-(pyrrolidin-1-ylmethyl)thieno[2,3-b]pyridine-5-carbonitrile], the melting point fell in the range of 212 to 215 °C. For the same compound, in data set [1], the midpoint of inhibition, the IC50, lay at 3.21 µM.
On the same counts, the results for `CCCCc1cc2c(Nc3ccc4[nH]ccc4c3)c(C#N)cnc2s1` [Compound 271, 2-butyl-4-(1H-indol-5-ylamino)thieno[2,3-b]pyridine-5-carbonitrile] are 210 °C and 1.16 µM.
On the same counts, the results for `CN1CCN(CC/C=C/c2cc3c(Nc4ccc5[nH]ccc5c4)c(C#N)cnc3s2)CC1` [Compound 273, 4-(1H-indol-5-ylamino)-2-[(1E)-4-(4-methylpiperazin-1-yl)but-1-en-1-yl]thieno[2,3-b]pyridine-5-carbonitrile] are 220 °C and 0.447 µM.
Consider `CN1CCN(CCCCc2cc3c(Nc4ccc5[nH]ccc5c4)c(C#N)cnc3s2)CC1` [Compound 274, 4-(1H-indol-5-ylamino)-2-[4-(4-methylpiperazin-1-yl)butyl]thieno[2,3-b]pyridine-5-carbonitrile], for which the melting point is 120 °C (dec.). In addition, the IC50 in data set [1] is 0.983 µM.
On the same counts, the results for `CCOC(=O)/C=C/c1cc2c(Nc3ccc4[nH]ccc4c3)c(C#N)cnc2s1` [Compound 280, ethyl (2E)-3-[5-cyano-4-(1H-indol-5-ylamino)thieno[2,3-b]pyridin-2-yl]acrylate] are 226 °C and 0.605 µM.
On the same counts, the results for `N#Cc1cnc2sc(/C=C/C(=O)O)cc2c1Nc1ccc2[nH]ccc2c1` [Compound 281, (2E)-3-[5-cyano-4-(1H-indol-5-ylamino)thieno[2,3-b]pyridin-2-yl]acrylic acid] are 230 °C (dec.) and 1.96 µM.
On the same counts, the results for `Cc1c(Nc2c(C#N)cnc3sc(/C=C/C(=O)O)cc23)ccc2[nH]ccc12` [Compound 283, (2E)-3-{5-cyano-4-[(4-methyl-1H-indol-5-yl)amino]thieno[2,3-b]pyridin-2-yl}acrylic acid] are > 350 °C and 0.021 µM.
Compound `CCOC(=O)CCc1cc2c(Nc3ccc4[nH]ccc4c3)c(C#N)cnc2s1` [Compound 284, ethyl 3-[5-cyano-4-(1H-indol-5-ylamino)thieno[2,3-b]pyridin-2-yl]propanoate] showed a melting point of 202 °C. The compound further had an IC50 in data set [1] of 0.657 µM.
On the same counts, the results for `N#Cc1cnc2sc(CCC(=O)O)cc2c1Nc1ccc2[nH]ccc2c1` [Compound 285, 3-[5-cyano-4-(1H-indol-5-ylamino)thieno[2,3-b]pyridin-2-yl]propanoic acid] are 255 °C and 5.02 µM.
On the same counts, the results for `Cc1c(Nc2c(C#N)cnc3sc(/C=C/C(=O)O)c(C)c23)ccc2[nH]ccc12` [Compound 287, (2E)-3-{5-Cyano-3-methyl-4-[(4-methyl-1H-indol-5-yl)amino]thieno[2,3-b]pyridin-2-yl}acrylic acid] are 329 °C and 0.047 µM.
As to `Cc1c(Nc2c(C#N)cnc3sc(CCC(=O)N4CCCC4)cc23)ccc2[nH]ccc12` [Compound 315, 4-[(4-methyl-1H-indol-5-yl)amino]-2-(3-oxo-3-pyrrolidin-1-ylpropyl)thieno[2,3-b]pyridine-5-carbonitrile], the melting point is 175 °C. In addition, in data set [1], it took 0.251 µM to reach half-maximal inhibition (IC50).
Regarding `N#Cc1cnc2sc(CCc3ccccc3)cc2c1Nc1ccc2[nH]ccc2c1` [Compound 316, 4-(1H-Indol-5-ylamino)-2-(2-phenylethyl)thieno[2,3-b]pyridine-5-carbonitrile], the melting point is 150 °C (dec.). Further, half-maximal inhibition in data set [1] (IC50) was put at 1.69 µM.
`CN(C)Cc1cccc(-c2cc3c(Nc4ccc5[nH]ccc5c4)c(C#N)cnc3s2)n1` [Compound 443, 2-{6-[(dimethylamino)methyl]pyridin-2-yl}-4-(1H-indol-5-ylamino)thieno[2,3-b]pyridine-5-carbonitrile] showed a melting point of 198 to 200 °C. In addition, the IC50 in data set [1] is 0.125 µM.
Take `Cc1c(Nc2c(C#N)cnc3sc(C#Cc4cc(CN(C)C)ccn4)cc23)ccc2[nH]ccc12` [Compound 444, 2-({4-[(dimethylamino)methyl]pyridin-2-yl}ethynyl)-4-[(4-methyl-1H-indol-5-yl)amino]thieno[2,3-b]pyridine-5-carbonitrile]: the melting point is > 250 °C. Besides, the IC50 in data set [1] was 0.176 µM.
On to `Cc1c(Nc2c(C#N)cnc3sc(C#Cc4ccc(N(C)C)nc4)cc23)ccc2[nH]ccc12` [Compound 445, 2-{[6-(dimethylamino)pyridin-3-yl]ethynyl}-4-[(4-methyl-1H-indol-5-yl)amino]thieno[2,3-b]pyridine-5-carbonitrile], for which the melting point is > 260 °C. Moreover, in data set [1], the IC50 was 0.55 µM.
On the same counts, the results for `Cc1c(Nc2c(C#N)cnc3sc(C#Cc4coc(CN5CCN(C)CC5)c4)cc23)ccc2[nH]ccc12` [Compound 447, 4-[(4-methyl-1H-indol-5-yl)amino]-2-({5-[(4-methylpiperazin-1-yl)methyl]-3-furyl}ethynyl)thieno[2,3-b]pyridine-5-carbonitrile] are 216 to 218 °C and 0.171 µM.
